Holding throughout (type): functional
Assay [1] relates to Helicoverpa zea. The assay can be described thus: Antifeedant activity against third-instar larval stage of Helicoverpa zea (corn earworm) infested compound-treated leaf assessed as time required to stop feeding at 467 mg a.i/L after 48 hr by leaf disk assay (reference value: > 2880 min).
Assay [2] has as its system Plutella xylostella. Nature of the assay: Antifeedant activity against third-instar larval stage of Plutella xylostella (diamondback moth) infested compound-treated leaf assessed as reduction in feeding damage at 467 mg a.i/L after 48 hr by leaf disk assay relative to untreated control. Also on record: scale not given: the % may be the effect or the level left.
In assay [3] the test system is Trichoplusia ni. The assay can be described thus: Antifeedant activity against third-instar larval stage of Trichoplusia ni (cabbage looper) infested compound-treated leaf assessed as reduction in feeding damage at 467 mg a.i/L after 48 hr by leaf disk assay relative to untreated control. Also on record: scale not given: the % may be the effect or the level left.
For assay [4], the system named is Spodoptera exigua. Nature of the assay: Antifeedant activity against third-instar larval stage of Spodoptera exigua infested compound-treated leaf assessed as reduction in feeding damage at 467 mg a.i/L after 48 hr by leaf disk assay relative to untreated control. Also on record: scale not given: the % may be the effect or the level left.
For assay [5], the system named is Helicoverpa zea. Nature of the assay: Antifeedant activity against third-instar larval stage of Helicoverpa zea (corn earworm) infested compound-treated leaf assessed as reduction in feeding damage at 467 mg a.i/L after 48 hr by leaf disk assay relative to untreated control. Also on record: scale not given: the % may be the effect or the level left.
The test system of assay [6] is Trichoplusia ni. The assay can be described thus: Antifeedant activity against third-instar larval stage of Trichoplusia ni (cabbage looper) infested compound-treated leaf assessed as time required to stop feeding at 467 mg a.i/L after 48 hr by leaf disk assay (reference value: > 2880 min).
In assay [7] the test system is Spodoptera exigua. The assay can be described thus: Antifeedant activity against third-instar larval stage of Spodoptera exigua infested compound-treated leaf assessed as time required to stop feeding at 467 mg a.i/L after 48 hr by leaf disk assay (reference value: > 2880 min).
Assay [8] deals with Plutella xylostella. The assay can be described thus: Antifeedant activity against third-instar larval stage of Plutella xylostella (diamondback moth) infested compound-treated leaf assessed as time required to stop feeding at 467 mg a.i/L after 48 hr by leaf disk assay (reference value: > 2880 min).
Assay [9] concerns Spodoptera exigua. Nature of the assay: Antifeedant activity against third-instar larval stage of Spodoptera exigua infested compound-treated leaf assessed as time required to stop feeding at 40 mg a.i/L after 48 hr by leaf disk assay (reference value: > 2880 min).
Assay [10] relates to Helicoverpa zea. The assay can be described thus: Antifeedant activity against third-instar larval stage of Helicoverpa zea (corn earworm) infested compound-treated leaf assessed as reduction in feeding damage at 40 mg a.i/L after 48 hr by leaf disk assay relative to untreated control. Also on record: scale not given: the % may be the effect or the level left.
Assay [11] deals with Helicoverpa zea. The assay can be described thus: Antifeedant activity against third-instar larval stage of Helicoverpa zea (corn earworm) infested compound-treated leaf assessed as time required to stop feeding at 40 mg a.i/L after 48 hr by leaf disk assay (reference value: > 2880 min).
The test system of assay [12] is Plutella xylostella. The assay can be described thus: Antifeedant activity against third-instar larval stage of Plutella xylostella (diamondback moth) infested compound-treated leaf assessed as reduction in feeding damage at 40 mg a.i/L after 48 hr by leaf disk assay relative to untreated control. Also noted: scale not given: the % may be the effect or the level left.

Assay [13] concerns Plutella xylostella. The assay can be described thus: Antifeedant activity against third-instar larval stage of Plutella xylostella (diamondback moth) infested compound-treated leaf assessed as time required to stop feeding at 40 mg a.i/L after 48 hr by leaf disk assay (reference value: > 2880 min).
For assay [14], the system named is Trichoplusia ni. The assay can be described thus: Antifeedant activity against third-instar larval stage of Trichoplusia ni (cabbage looper) infested compound-treated leaf assessed as time required to stop feeding at 40 mg a.i/L after 48 hr by leaf disk assay (reference value: > 2880 min).
In assay [15] the test system is Trichoplusia ni. The assay can be described thus: Antifeedant activity against third-instar larval stage of Trichoplusia ni (cabbage looper) infested compound-treated leaf assessed as reduction in feeding damage at 40 mg a.i/L after 48 hr by leaf disk assay relative to untreated control. Also on record: scale not given: the % may be the effect or the level left.

The test system of assay [16] is Spodoptera exigua. The assay can be described thus: Antifeedant activity against third-instar larval stage of Spodoptera exigua infested compound-treated leaf assessed as reduction in feeding damage at 40 mg a.i/L after 48 hr by leaf disk assay relative to untreated control. Also on record: scale not given: the % may be the effect or the level left.
Assay [17] deals with Plutella xylostella. The assay can be described thus: Antifeedant activity against third-instar larval stage of Plutella xylostella (diamondback moth) infested compound-treated leaf assessed as time required to stop feeding at 244 mg a.i/L after 48 hr by leaf disk assay (reference value: > 2880 min).
In assay [18] the test system is Trichoplusia ni. Nature of the assay: Antifeedant activity against third-instar larval stage of Trichoplusia ni (cabbage looper) infested compound-treated leaf assessed as reduction in feeding damage at 244 mg a.i/L after 48 hr by leaf disk assay relative to untreated control. Also on record: scale not given: the % may be the effect or the level left.
Assay [19] has as its system Spodoptera exigua. The assay can be described thus: Antifeedant activity against third-instar larval stage of Spodoptera exigua infested compound-treated leaf assessed as time required to stop feeding at 244 mg a.i/L after 48 hr by leaf disk assay (reference value: > 2880 min).
Assay [20] has as its system Helicoverpa zea. The assay can be described thus: Antifeedant activity against third-instar larval stage of Helicoverpa zea (corn earworm) infested compound-treated leaf assessed as reduction in feeding damage at 244 mg a.i/L after 48 hr by leaf disk assay relative to untreated control. Also on record: scale not given: the % may be the effect or the level left.
For assay [21], the system named is Plutella xylostella. The assay can be described thus: Antifeedant activity against third-instar larval stage of Plutella xylostella (diamondback moth) infested compound-treated leaf assessed as reduction in feeding damage at 244 mg a.i/L after 48 hr by leaf disk assay relative to untreated control. Also noted: scale not given: the % may be the effect or the level left.

Assay [22] has as its system Helicoverpa zea. The assay can be described thus: Antifeedant activity against third-instar larval stage of Helicoverpa zea (corn earworm) infested compound-treated leaf assessed as time required to stop feeding at 244 mg a.i/L after 48 hr by leaf disk assay (reference value: > 2880 min).
Assay [23] relates to Spodoptera exigua. Nature of the assay: Antifeedant activity against third-instar larval stage of Spodoptera exigua infested compound-treated leaf assessed as reduction in feeding damage at 244 mg a.i/L after 48 hr by leaf disk assay relative to untreated control. Also noted: scale not given: the % may be the effect or the level left.
Assay [24] deals with Trichoplusia ni. The assay can be described thus: Antifeedant activity against third-instar larval stage of Trichoplusia ni (cabbage looper) infested compound-treated leaf assessed as time required to stop feeding at 244 mg a.i/L after 48 hr by leaf disk assay (reference value: > 2880 min).

Structures are written as SMILES.

`COc1cccc(C(=O)NN(C(=O)c2cc(C)cc(C)c2)C(C)(C)C)c1C` [METHOXYFENOZIDE]: the Time in [1] came to 471.8 min; in assay [6] it was 408.8 min; in assay [7], 281.1 min; in assay [8], 514.5 min. Moreover, the Activity in assay [2] turned out to be 96%; in assay [3] it was 81.6%; in [4], 72.9%; in assay [5] it was 93.3%.
As to `CC[C@H](C)C1O[C@]2(C=C[C@@H]1C)C[C@@H]1C[C@@H](C/C=C(\C)[C@@H](O[C@H]3C[C@H](OC)[C@@H](O[C@H]4C[C@H](OC)[C@H](NC)[C@H](C)O4)[C@H](C)O3)[C@@H](C)/C=C/C=C3\CO[C@@H]4[C@H](O)C(C)=C[C@@H](C(=O)O1)[C@]34O)O2.O=C(O)c1ccccc1` (some centres undefined) [EMAMECTIN BENZOATE], the Time turned out to be 139 min in [9], 151.8 min in assay [11], 55.9 min in [13] and 91.9 min in assay [14]. Also, the Activity is reported as 93.9% in assay [10], 97.9% in assay [12], 95.7% in assay [15] and 92.4% in assay [16].
Regarding `COC(=O)N(C(=O)N1CO[C@@]2(C(=O)OC)Cc3cc(Cl)ccc3C2=N1)c1ccc(OC(F)(F)F)cc1` [INDOXACARB], the Time in [17] came to 151.6 min; in assay [19], 54.2 min; in [22], 77.2 min; in [24], 83.6 min. Further, the Activity in assay [18] was found to be 94.8%; in [20], 93.4%; in assay [21], 96.6%; in [23], 95.4%.

For the origin of these results see ChEMBL document CHEMBL3044623, “Feeding cessation effects of chlorantraniliprole, a new anthranilic diamide insecticide, in comparison with several insecticides in distinct chemical classes and mode-of-action groups” (2009).
